Assay results: patent US9951058B2, “Compound, pharmaceutically acceptable salt or optical isomer thereof, method for preparing the same, and pharmaceutical composition for prevention or treatment of viral diseases containing same as active ingredient” (Korea Research Institute of Chemical Technology, priority 2012, dated 2018)
≈ marks a conversion by molar mass, not a printed value.

Key:
[1] = cited from earlier work; for therapeutic effect: clinical
[2] = in vivo, cited from earlier work
[3] = tested on: rhinoviruses and enteroviruses; settings: cited from earlier work
HRV 21 = assay: Cytopathic effect (CPE) inhibition assay; format: cell-based, human rhinovirus; settings: Human rhinovirus sp., 72 h; host cell HeLa, 3 days, MEM/2% FBS, MTT assay; read-out: EC50 HRV 21
[4] = tested on: coxsackievirus B1 (Cox B1); assay: Multicycle cytopathic effect (CPE) reduction assay; format: cell-based; settings: Enterovirus B, B1, 72 h, read-out: EC50 CoxB1
[5] = Cytotoxicity (CC50) in multicycle CPE reduction assay, MTS; settings: human
[6] = tested on: coxsackievirus B3 (Cox B3); assay: Multicycle cytopathic effect (CPE) reduction assay; format: cell-based; settings: Enterovirus B, B3, 72 h, read-out: EC50 CoxB3
in vitro = settings: human
poliovirus 3 (PV3) = assay: microbe, parasite or virus in culture; format: cell-based; settings: Enterovirus C, 72 h, read-out: EC50 PV3
HRV 14 = assay: Cytopathic effect (CPE) inhibition assay; format: cell-based, human rhinovirus; settings: Human rhinovirus sp., HeLa, 72 h, host cell HeLa, 3 days, MEM/2% FBS, MTT assay; read-out: EC50 HRV 14
HRV 71 = assay: Cytopathic effect (CPE) inhibition assay; format: cell-based, human rhinovirus; settings: Human rhinovirus sp., 72 h; host cell HeLa, 3 days, MEM/2% FBS, MTT assay; read-out: EC50 HRV 71

Row | SMILES | therapeutic effect [1] | side effects ([1]; in vivo) | oral bioavailability ([2]; po) | antiviral effects in the cell culture [3] | bioavailability [2] | EC50 (HRV 21) [µg/mL] | EC50 [4] [µg/mL] | CC50 at 3 days [5] [µg/mL] | EC50 [6] [µg/mL] | CC50 (in vitro) [µg/mL] | EC50 (poliovirus 3 (PV3)) [µg/mL] | EC50 (HRV 14) [µg/mL] | EC50 (HRV 71) [µg/mL] | metabolization and excretion [2] | pharmacokinetics ([1]; in vivo)
1 | Cc1cc(CCCOc2c(C)cc(-c3noc(C(F)(F)F)n3)cc2C)on1 [Pleconaril] | therapy success was too low | side effects were observed | very good oral bioavailability | – | – | – | – | – | – | – | – | – | – | – | –
2 | CCOC(=O)c1ccc(OCCC2CCN(c3ccc(C)nn3)CC2)cc1 [pirodavir] | – | – | – | very good antiviral effects | – | – | – | – | – | – | – | – | – | – | –
3 | CCC(=O)C(CCCCCCOc1ccc(OC)cc1Cl)C(=O)CC [arildone] | – | – | – | very good antiviral effects | low bioavailability | – | – | – | – | – | – | – | – | – | –
4 | Cc1cc2c(cc1C)C1(NC(=O)C(=O)c3ccccc3)C(=O)c3ccccc3C1(O)O2 (stereo not shown) [Example 12, N-(4b-hydroxy-7,8-dimethyl-10-oxo-9b, 10-dihydro-4bH-indeno[1,2-b]benzofuran-9b-yl)-2-oxo-2-phenyl acetamide] | – | – | – | – | – | > 10 | 0.015 (≈ 0.0363 µM) | > 10 | 0.064 (≈ 0.155 µM) | > 10 | 9.8 (≈ 23.7 µM) | 2.08 (≈ 5.03 µM) | > 10 | – | –
5 | CC(C)CC(=O)C(=O)NC12C(=O)c3cccc([N+](=O)[O-])c3C1(O)Oc1cc(C(C)C)ccc12 (stereo not shown) [Example 38, N-(4b hydroxyl-7-isopropyl-4-nitro-10-oxo-4b, 10-dihydro-9bH-indeno[1,2-b]benzofuran-9b-yl)-4-methyl-2-oxo pentanamide] | – | – | – | – | – | > 10 | < 1 | > 10 | < 1 | > 10 | < 10 | < 10 | > 10 | – | –
6 | CC(C)c1ccc2c(c1)OC1(O)c3c(cccc3[N+](=O)[O-])C(=O)C21NC(=O)C(=O)c1c[nH]c2ccccc12 (stereo not shown) [Example 8, N-(4b-hydroxy-7-isopropyl-4-nitro-10-oxo-9b, 10-dihydro-4bH-indeno[1,2-b]benzofuran-9b-yl)-2-(1H-indol-3-yl)-2-oxo acetamide] | – | – | – | – | – | > 10 | 0.56 (≈ 1.09 µM) | > 10 | 1.82 (≈ 3.56 µM) | > 10 | 9.8 (≈ 19.2 µM) | 2.31 (≈ 4.52 µM) | > 10 | – | –
7 | CC(C)c1ccc2c(c1)OC1(O)c3c(cccc3[N+](=O)[O-])C(=O)C21NC(=O)C(=O)c1ccccc1 (stereo not shown) [Example 16, N-(4b-hydroxy-7-isopropyl-4-nitro-10-oxo-9b, 10-dihydro-4bH-indeno[1,2-b]benzofuran-9b-yl)-2-oxo-2-phenyl acetamide] | – | – | – | – | – | > 10 | 0.078 (≈ 0.165 µM) | > 10 | 0.33 (≈ 0.698 µM) | > 10 | 2.13 (≈ 4.51 µM) | 1.77 (≈ 3.75 µM) | > 10 | – | –
8 | CC(C)c1ccc2c(c1)OC1(O)c3ccccc3C(=O)C21NC(=O)C(=O)CC(=O)c1ccncc1 (stereo not shown) [Example 42, N-(4b-hydroxy-7-isopropyl-10-oxo-4b, 10-dihydro-9bH-indeno[1,2-b]benzofuran-9b-yl)-2,4-dioxo-4-(pyridyn-4-yl)butanamide] | – | – | – | – | – | > 10 | < 0.1 | > 10 | < 0.1 | > 10 | > 10 | < 10 | > 10 | – | –
9 | CCCNC(=O)OC12C(=O)c3ccccc3C1(O)Oc1cc(C(C)C)ccc12 (stereo not shown) [Example 18, 4b-hydroxy-7-isopropyl-10-oxo-4b, 10-dihydro-9bH-indeno[1,2-b]benzofuran-9b-yl propyl carbamate] | – | – | – | – | – | > 10 | < 10 | > 10 | < 10 | > 10 | > 10 | > 10 | > 10 | – | –
10 | COc1cc(C(=O)C(=O)NC23C(=O)c4cccc([N+](=O)[O-])c4C2(O)Oc2cc(C(C)C)ccc23)cc(OC)c1OC (stereo not shown) [Example 58, N-(4b-hydroxy-7-isopropyl-4-nitro-10-oxo-4b, 10-dihydro-9bH-indeno[1,2-b]benzofuran-9b-yl) 2-oxo-2-(3,4,5-trimethoxyphenyl)acetamide] | – | – | – | – | – | > 10 | < 10 | > 10 | < 10 | > 10 | > 10 | < 10 | > 10 | – | –
11 | CC(C)c1ccc2c(c1)OC1(O)c3ccccc3C(=O)C21NC(N)=S (stereo not shown) [Example 61, 1-(4b-hydroxy-7-isopropyl-10-oxo-4b, 10-dihydro-9bH-indeno[1,2-b]benzofuran-9b-yl)thiourea] | – | – | – | – | – | > 10 | < 0.1 | > 10 | < 1 | > 10 | > 10 | < 10 | > 10 | – | –
12 | Cc1cc2c(cc1C)C1(NC(=O)C(=O)c3c[nH]c4ccccc34)C(=O)c3ccccc3C1(O)O2 (stereo not shown) [Example 13, N-(4b-hydroxy-7,8-dimethyl-10-oxo-9b, 10-dihydro-9bH-indeno[1,2-b]benzofuran-9b-yl)-(1H-indo1-3-yl)-2-oxo acetamide] | – | – | – | – | – | > 8.41 | 0.061 (≈ 0.135 µM) | 8.31 (≈ 18.4 µM) | 0.13 (≈ 0.287 µM) | 8.41 (≈ 18.6 µM) | 1.98 (≈ 4.38 µM) | 1.85 (≈ 4.09 µM) | > 8.41 | – | –
13 | COc1cc(C(=O)C(=O)NC23C(=O)c4ccccc4C2(O)Oc2cc(C(C)C)ccc23)cc(OC)c1OC (stereo not shown) [Example 23, N-(4b-hydroxy-7-isopropyl-10-oxo-4b, 10-dihydro-9bH-indeno[1,2-b]benzofuran-9b-yl)-2-oxo-2-(3,4,5-trimethoxyphenyl)acetamide] | – | – | – | – | – | > 10 | < 0.1 | > 10 | < 0.1 | > 10 | < 10 | < 10 | > 10 | – | –
14 | CCOC(=O)C(=O)NC12C(=O)c3c(N)cccc3C1(O)Oc1cc(C(C)C)ccc12 (stereo not shown) [Example 36, Ethyl 2-((1-amino-4b-hydroxy-7-isopropyl-10-oxo-4b, 10-dihydro-9bH-indeno[1,2-b]benzofuran-9b-yl)amino)-2-oxo acetate] | – | – | – | – | – | > 10 | < 0.1 | > 10 | < 0.1 | > 10 | < 10 | < 1 | > 10 | – | –
15 | CC(C)c1ccc2c(c1)OC1(O)c3ccccc3C(=O)C21NC(=O)CCC(=O)O (stereo not shown) [Example 43] | – | – | – | – | – | > 10 | < 1 | > 10 | < 1 | > 10 | > 10 | > 10 | > 10 | – | –
16 | CC(C)c1ccc2c(c1)OC1(O)c3ccccc3C(=O)C21NC(=O)C(=O)Cc1ccc(O)cc1 (stereo not shown) [Example 9, N-(4b-hydroxy-7-isopropyl-10-oxo-9b, 10-dihydro-4bH-indeno[1,2-b]benzofuran-9b-yl)-3-(4-hydroxyphenyl)-2-oxo propanamide] | – | – | – | – | – | > 3.76 | 0.013 (≈ 0.0284 µM) | 9.21 (≈ 20.1 µM) | 0.015 (≈ 0.0328 µM) | 3.76 (≈ 8.22 µM) | < 1 | > 3.76 | > 3.76 | – | –
17 | Cc1cc(CCCCCCCOc2ccc(C3=NCCO3)cc2)on1 [disoxaril] | – | – | – | very good antiviral effects | low bioavailability | – | – | – | – | – | – | – | – | rapid metabolization and excretion | –
18 | CC(C)c1ccc2c(c1)OC1(O)c3ccccc3C(=O)C21NC(=O)C(=O)N1CCN(C)CC1 (stereo not shown) [Example 48, N-(4b-hydroxy-7-isopropyl-10-oxo-4b, 10-dihydro-9bH-indeno[1,2-b]benzofuran-9b-yl)-2-(4-methylpiperazin-1-yl)-2-oxo acetamide] | – | – | – | – | – | > 10 | < 0.1 | > 10 | < 0.1 | > 10 | < 10 | < 1 | > 10 | – | –
19 | COc1ccc(/C=C/C(=O)C(=O)NC23C(=O)c4ccccc4C2(O)Oc2cc(C(C)C)ccc23)cc1OC (stereo not shown) [Example 24, (E)-4-(3,4-dimethoxyphenyl)-N-(4b-hydroxy-7-isopropyl-10-oxo-4b, 10-dihydro-9bH-indeno[1,2-b]benzofuran-9b-yl)-2-oxobut-3-enamide] | – | – | – | – | – | > 10 | < 0.1 | > 10 | < 0.1 | > 10 | < 10 | < 10 | > 10 | – | –
20 | CC(C)S(=O)(=O)n1c(N)nc2ccc(/C(=N/O)c3ccccc3)cc21 [Enviroxime] | few or no therapeutic effects | unwanted side effects | – | – | – | – | – | – | – | – | – | – | – | – | insufficient pharmacokinetics
21 | CC(C)c1ccc2c(c1)OC1(O)c3ccccc3C(=O)C21NC(=O)C(=O)Cc1ccccc1[N+](=O)[O-] (stereo not shown) [Example 3, N-(4b-hydroxy-7-isopropyl-10-oxo-9b, 10-dihydro-4bH-indeno[1,2-b]benzofuran-9b-yl)-3-(2-nitrophenyl)-2-oxo propanamide] | – | – | – | – | – | > 1.76 | 0.013 (≈ 0.0267 µM) | 2.38 (≈ 4.89 µM) | 0.015 (≈ 0.0308 µM) | 1.76 (≈ 3.62 µM) | < 1 | > 1.76 | > 1.76 | – | –
22 | Cc1cc(CCCCCOc2c(Cl)cc(C3=NCCO3)cc2Cl)on1 [WIN 54954] | – | skin rash | – | – | – | – | – | – | – | – | – | – | – | rapid metabolization and excretion | –
